Test results as given in patent publication US20260158011A1 (Achieve Life Sciences, Inc., priority 2023, published 2026).
Several values for one entry are separate records, joined by “and”; a condition that tells them apart may be missing. Equal values may be shown once. Read-outs that look alike come from different tables or passages of the source.

Test system: adult e-cigarette users
Settings: for Relative Risk, vaping cessation Week 9 to 12: Row 1 (X = 0) over Row 2 (X = 1); for Common Relative Risk, Logit / Common Relative Risk, Mantel-Haenszel: X = 0 over X = 1, controlling for S; for Relative Risk, Logit / Relative Risk, Mantel-Haenszel: X = 0 over X = 1, no stratifier
Protocol: This Example describes a Phase 2 ORCA-V1 trial evaluated 160 adult e-cigarette users at 5 clinical trial locations in the United States. […] ORCA-V1 participants were randomized to receive 3 mg cytisinicline three times daily or placebo for 12 weeks in combination with standard cessation behavioral support. The dose and administration of cytisinicline in the ORCA-V1 study is identical to that used in the Phase 3 registrational trials for smoking cessation.
ORCA-V1 evaluated the efficacy and safety of 3 mg cytisinicline dosed three times daily for 12 weeks compared to placebo in 160 adult users of e-cigarettes or nicotine vapes. All participants received behavioral support for nicotine cessation.
Subjects were stratified on whether they have smoked >100 cigarettes in their lifetime (yes vs no) (FIG. 57). […] Missing data may be assumed as reported vaping.
Key inclusion criteria consisted of daily electronic cigarette usage (age ≥18 years): willing to bring e-cigarette or nicotine device used to clinical site and document specific product type, flavor, and nicotine level. Individuals were required to test positive for cotinine using the Alere iScreen® Oral Fluid Screening Device (Positive testing at 30 ng/mL cotinine level). Individuals required to be willing to set quit date within 7-14 days of after randomization and to participate in vaping cessation behavioral support provided throughout the study.
Key exclusion criteria included those currently smoking, or having smoked within 4 weeks prior to study randomization, and those with Expired Carbon Monoxide (CO) levels ≥10 ppm, indicating recent combustible tobacco use (i.e., no dual users). Those with clinically abnormal laboratory values were also excluded, as well as those with positive urinary screen for illicit drugs (THC not included in screen). Those with uncontrolled hypertension (BP 160/100 mmHg), abnormal ECG, or recent acute myocardial infarction, stroke, or heart failure admission in past 3 months were excluded. Psychiatric exclusions included (1) schizophrenia or bipolar disorder, (2) current moderate to severe depression symptoms, (3) high risk of suicide ideation. Pregnant or breast-feeding women or unwilling to use acceptable methods of birth control during the study were also excluded.
The first measurement consisted of biochemically verified continuous vaping abstinence during the last 4 weeks of treatment after 12 weeks of cytisinicline treatment vs placebo. Vaping abstinence during weeks 9-12 was verified with no reported vaping with weekly saliva cotinine levels <10 ng/mL.
A second measurement consisted of biochemically verified continuous vaping abstinence at any time during treatment, with vaping abstinence at Week 3-6 or Week 6-9 for of cytisinicline treatment vs placebo. 7-day point prevalence rates were compared for vaping abstinence (Week 2 to 12) (FIG. 62). An additional measurement included reduction in daily vaping as measured by cotinine, where cytisinicline treatment vs placebo for a reduction in nicotine vaping using weekly quantitative cotinine levels from Week 2 to Week 12. Safety was assessed by adverse effects and serious adverse effects, considering number, severity, and attribution to study drug.

[1] = 3 mg cytisinicline TID 12 weeks
[2] = All Randomized Set, Cytisinicline 12 Weeks N = 107, saliva cotinine <10 ng/mL
[3] = X = 1, Table of X by Y, all randomized, 107 subjects in row
[4] = X = 1, stratum S = 0 (>100 cigarettes = No), 30 subjects in row
[5] = X = 1, stratum S = 1 (>100 cigarettes = Yes), 77 subjects in row
[6] = share of all N = 107 of the arm
[7] = vs placebo, no stratifier, N=160, vaping cessation Week 9 to 12

## O=c1cccc2n1C[C@@H]1CNC[C@H]2C1 [cytisine, (−)-Cytisine]
[1]
  Odds ratio versus placebo, vaping cessation weeks 9-12, primary analysis with prospective stratification factor: 2.6 and 2.64
  Odds ratio versus placebo, vaping cessation weeks 9-12, site as a stratification factor: 3.03
  Odds ratio versus placebo, vaping cessation weeks 9-12, without any stratification factor: 2.62
3 mg cytisinicline TID 12 weeks, saliva cotinine <10 ng/mL
  Vaping cessation rate during weeks 9-12: 31.8%
12 Weeks arm N = 107, All Randomized Set
  Continuous Vaping Abstinence Week 9 to Week 16, n (%): 25 (23.4) n (%)
[2]
  Vaping Cessation from Week 3 to Week 6, percent of subjects: 24.3%
  Vaping Cessation from Week 6 to Week 9, percent of subjects: 30.8%
All Randomized Set, Cytisinicline 12 wks N = 107, saliva cotinine <10 ng/mL
  Vaping Cessation From Week 9 to Week 12, percent of subjects: 31.8%
Week 2, 12 Weeks arm N = 107, All Randomized Set
  7-Day Point Prevalence Abstinence, n (%): 15 (14.0) n (%)
Week 2, vs placebo (N = 53)
  7-Day Point Prevalence Abstinence, Difference in Proportions: 0.06
  7-Day Point Prevalence Abstinence, Odds Ratio: 2.00
Week 3, 12 Weeks arm N = 107, All Randomized Set
  7-Day Point Prevalence Abstinence, n (%): 36 (33.6) n (%)
Week 3, vs placebo (N = 53)
  7-Day Point Prevalence Abstinence, Difference in Proportions: 0.11
  7-Day Point Prevalence Abstinence, Odds Ratio: 1.73
Week 4, 12 Weeks arm N = 107, All Randomized Set
  7-Day Point Prevalence Abstinence, n (%): 53 (49.5) n (%)
Week 4, vs placebo (N = 53)
  7-Day Point Prevalence Abstinence, Difference in Proportions: 0.25
  7-Day Point Prevalence Abstinence, Odds Ratio: 3.02
Week 5, 12 Weeks arm N = 107, All Randomized Set
  7-Day Point Prevalence Abstinence, n (%): 45 (42.1) n (%)
Week 5, vs placebo (N = 53)
  7-Day Point Prevalence Abstinence, Difference in Proportions: 0.14
  7-Day Point Prevalence Abstinence, Odds Ratio: 1.84
Week 6, 12 Weeks arm N = 107, All Randomized Set
  7-Day Point Prevalence Abstinence, n (%): 44 (41.1) n (%)
Week 6, vs placebo (N = 53)
  7-Day Point Prevalence Abstinence, Difference in Proportions: 0.17
  7-Day Point Prevalence Abstinence, Odds Ratio: 2.15
Week 7, 12 Weeks arm N = 107, All Randomized Set
  7-Day Point Prevalence Abstinence, n (%): 52 (48.6) n (%)
Week 7, vs placebo (N = 53)
  7-Day Point Prevalence Abstinence, Difference in Proportions: 0.26
  7-Day Point Prevalence Abstinence, Odds Ratio: 3.23
Week 8, 12 Weeks arm N = 107, All Randomized Set
  7-Day Point Prevalence Abstinence, n (%): 46 (43.0) n (%)
Week 8, vs placebo (N = 53)
  7-Day Point Prevalence Abstinence, Difference in Proportions: 0.18
  7-Day Point Prevalence Abstinence, Odds Ratio: 2.32
Week 9, 12 Weeks arm N = 107, All Randomized Set
  7-Day Point Prevalence Abstinence, n (%): 45 (42.1) n (%)
Week 9, vs placebo (N = 53)
  7-Day Point Prevalence Abstinence, Difference in Proportions: 0.18
  7-Day Point Prevalence Abstinence, Odds Ratio: 2.23
Week 10, 12 Weeks arm N = 107, All Randomized Set
  7-Day Point Prevalence Abstinence, n (%): 44 (41.1) n (%)
Week 10, vs placebo (N = 53)
  7-Day Point Prevalence Abstinence, Difference in Proportions: 0.13
  7-Day Point Prevalence Abstinence, Odds Ratio: 1.77
Week 11, 12 Weeks arm N = 107, All Randomized Set
  7-Day Point Prevalence Abstinence, n (%): 40 (37.4) n (%)
Week 11, vs placebo (N = 53)
  7-Day Point Prevalence Abstinence, Difference in Proportions: 0.13
  7-Day Point Prevalence Abstinence, Odds Ratio: 1.84
Week 12, 12 Weeks arm N = 107, All Randomized Set
  7-Day Point Prevalence Abstinence, n (%): 41 (38.3) n (%)
Week 12, vs placebo (N = 53)
  7-Day Point Prevalence Abstinence, Difference in Proportions: 0.16
  7-Day Point Prevalence Abstinence, Odds Ratio: 2.12
X = 1, Table of X by Y, all randomized
  Vaping cessation Week 9 to 12, Row Pct Y = 0 (failure): 68.22 Pct
[3]
  Vaping cessation Week 9 to 12, Frequency Y = 0 (failure): 73
  Vaping cessation Week 9 to 12, Row Pct Y = 1 (success): 31.78 Pct
X = 1, stratum S = 0 (>100 cigarettes = No)
  Vaping cessation Week 9 to 12, Row Pct Y = 0 (failure): 63.33 Pct
[4]
  Vaping cessation Week 9 to 12, Frequency Y = 0 (failure): 19
  Vaping cessation Week 9 to 12, Row Pct Y = 1 (success): 36.67 Pct
X = 1, stratum S = 1 (>100 cigarettes = Yes)
  Vaping cessation Week 9 to 12, Row Pct Y = 0 (failure): 70.13 Pct
[5]
  Vaping cessation Week 9 to 12, Frequency Y = 0 (failure): 54
  Vaping cessation Week 9 to 12, Row Pct Y = 1 (success): 29.87 Pct
Y = 0 (failure of vaping cessation Week 9 to 12), X = 1, N=160
  Column 1 Risk Estimates, Risk, Row 2: 0.6822
Y = 0 (failure), stratum S = 0, N=45
  Relative Risk, vaping cessation Week 9 to 12: 1.2632
Y = 0 (failure), stratum S = 1, N=115
  Relative Risk, vaping cessation Week 9 to 12: 1.2383
Y = 0 (failure), N=160
  Common Relative Risk, Logit: 1.2435
  Common Relative Risk, Mantel-Haenszel: 1.2448
  Relative Risk, Logit: 1.2445
  Relative Risk, Mantel-Haenszel: 1.2445
Y = 1 (success), stratum S = 0, N=45
  Relative Risk, vaping cessation Week 9 to 12: 0.5455
Y = 1 (success), stratum S = 1, N=115
  Relative Risk, vaping cessation Week 9 to 12: 0.4405
Y = 1 (success), X = 0 minus X = 1, N=160
  Column 2 Risk Difference (Row 1-Row 2): −0.1668
Y = 1 (success), N=160
  Common Relative Risk, Logit: 0.4784
  Common Relative Risk, Mantel-Haenszel: 0.4747
  Relative Risk, Logit: 0.4750
  Relative Risk, Mantel-Haenszel: 0.4750
Y = 1 (vaping cessation Week 9 to 12), X = 1, N=160
  Column 2 Risk Estimates, Risk, Row 2: 0.3178
Placebo group as reference
  Difference in Proportions, Vaping Cessation from Week 3 to Week 6: 0.09
  Difference in Proportions, Vaping Cessation from Week 6 to Week 9: 0.14
  Odds Ratio, Vaping Cessation from Week 3 to Week 6: 1.81
  Odds Ratio, Vaping Cessation from Week 6 to Week 9: 2.18
Placebo group as reference, All Randomized Set
  Marginal Difference in Proportions, Vaping Cessation from Week 9 to Week 12: 0.17
[6]
  Vaping Cessation From Week 9 to Week 12, value in parentheses, >100 Cigarettes smoke in Lifetime = No: 10.3
  Vaping Cessation From Week 9 to Week 12, value in parentheses, >100 Cigarettes smoke in Lifetime = Yes: 21.5
Stratum S = 0 (N=45; 30 on cytisinicline), Frequency X = 1, Y = 1 in FREQ table
  Vaping Cessation From Week 9 to Week 12, number of subjects, >100 Cigarettes smoke in Lifetime = No: 11
Stratum S = 1 (N=115; 77 on cytisinicline), Frequency X = 1, Y = 1 in FREQ table
  Vaping Cessation From Week 9 to Week 12, number of subjects, >100 Cigarettes smoke in Lifetime = Yes: 23
Vs placebo (N = 53)
  Continuous Vaping Abstinence Week 9 to Week 16, Difference in Proportions: 0.10
  Continuous Vaping Abstinence Week 9 to Week 16, Odds Ratio: 2.00
Vs placebo, controlling for S (>100 Cigarettes Smoked in Lifetime no, yes), N=160, listed as Cytisinicline
  Common Odds Ratio (Mantel-Haenszel), vaping cessation Week 9 to 12: 2.6375 and 2.64
Vs placebo, controlling for S, N=160
  Common Odds Ratio (Logit), vaping cessation Week 9 to 12: 2.6304
[7]
  Common Odds Ratio (Logit), summary statistics for X by Y: 2.6199
  Common Odds Ratio (Mantel-Haenszel), summary statistics for X by Y: 2.6199
Vs placebo, stratum S = 0 (>100 cigarettes = No), N=45
  Odds Ratio, vaping cessation Week 9 to 12: 2.3158
Vs placebo, stratum S = 1 (>100 cigarettes = Yes), N=115
  Odds Ratio, vaping cessation Week 9 to 12: 2.8111
